Experimental findings from US8012998B2, “Pyrrolidine aryl-ether as NK-3 receptor antagonists” (Hoffmann—LA Roche Inc., priority 2007, dated 2011) are described below.

This test addresses T1, human NK3 receptor (Homo sapiens, UniProt P29371).
T1 construct: expressed in transfected cells; host or cells: HEK293 cells (transient expression), membrane preparation
T1 sequence (P29371 1-465): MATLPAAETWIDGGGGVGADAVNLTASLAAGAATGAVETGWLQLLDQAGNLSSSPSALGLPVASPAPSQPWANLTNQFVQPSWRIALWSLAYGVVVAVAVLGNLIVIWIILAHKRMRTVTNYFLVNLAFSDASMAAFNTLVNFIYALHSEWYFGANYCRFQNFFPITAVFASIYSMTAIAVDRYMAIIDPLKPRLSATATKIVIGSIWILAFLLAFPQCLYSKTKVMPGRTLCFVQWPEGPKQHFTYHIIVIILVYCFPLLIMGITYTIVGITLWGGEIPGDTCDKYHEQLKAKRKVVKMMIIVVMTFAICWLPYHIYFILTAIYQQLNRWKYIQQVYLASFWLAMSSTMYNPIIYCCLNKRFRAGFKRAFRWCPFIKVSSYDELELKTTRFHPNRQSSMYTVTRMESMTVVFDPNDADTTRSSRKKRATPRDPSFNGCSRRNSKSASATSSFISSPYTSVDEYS
The test is described as follows: [3H]SR142801 competition binding assay (hNK3 receptor binding). The note with it: [3H]SR142801 radioligand; membranes from HEK293 cells transiently expressing recombinant human NK3 receptor; Ki by Cheng-Prussoff; read-out: KiNK3 h. As for the experimental part: [^3H]SR^142801 Competition Binding Assay
hNK3 receptor binding experiment were performed using [^3H]SR^142801 (Catalog No. TRK1035, specific activity: 74.0 Ci/mmol, Amersham, GE Healthcare UK limited, Buckinghamshire, UK) and membrane isolated from HEK293 cells transiently expressing recombinant human NK3 receptor. After thawing, the membrane homogenates were centrifuged at 48,000×g for 10 min at 4° C., the pellets were resuspended in the 50 mM Tris-HCl, 4 mM MnCl2, 1 μM phosphoramidon, 0.1% BSA binding buffer at pH 7.4 to a final assay concentration of 5 μg protein/well. […] At the end of the incubation, membranes were filtered onto unitfilter (96-well white microplate with bonded GF/C filter preincubated 1 h in 0.3% PEI +0.3% BSA, Packard BioScience, Meriden, Conn.) with a Filtermate 196 harvester (Packard BioScience) and washed 4 times with ice-cold 50 mM Tris-HCl, pH 7.4 buffer. Nonspecific binding was measured in the presence of 10 μM SB222200 for both radioligands. The radioactivity on the filter was counted (5 min) on a Packard Top-count microplate scintillation counter with quenching correction after addition of 45 μl of microscint 40 (Canberra Packard S.A., Zutrich, Switzerland) and shaking for 1 h. Inhibition curves were fitted according to the Hill equation: y=100/(1+(x/IC50)^nH), where nH=slope factor using Excel-fit 4 software (Microsoft). IC50 values were derived from the inhibition curve and the affinity constant (Ki) values were calculated using the Cheng-Prussoff equation Ki=IC50/(1+[L]/KD) where [L] is the concentration of radioligand and KD is its dissociation constant at the receptor, derived from the saturation isotherm. All experiments were performed in duplicate and the mean ± standard error (SEM) of the individual Ki values was calculated.
On to `Cc1ncc(C(=O)N2C[C@H]([C@H](C)Oc3ccc(C#N)cn3)[C@@H](c3ccc(Cl)c(Cl)c3)C2)c(C)n1` (racemic) [Example 36, 6-{(SR)-1-[(3RS,4SR)-4-(3,4-Dichloro-phenyl)-1-(2,4-dimethyl-pyrimidine-5-carbonyl)-pyrrolidin-3-yl]-ethoxy}-nicotinonitrile], for which the Ki worked out at 84 nM.
To `Cc1ncc(C(=O)N2C[C@@H]([C@@H](C)Oc3ccc(Cl)cn3)[C@@H](c3ccc(Cl)c(Cl)c3)C2)c(C)n1` (racemic) [Example 37] belongs 31.6 nM; to `CC(=O)Nc1ccc(C(=O)N2C[C@@H]([C@@H](C)Oc3ccc(Cl)cn3)[C@@H](c3ccc(Cl)c(Cl)c3)C2)cn1` (racemic) [Example 38], 15.6 nM; to `C[C@@H](Oc1ccc(Cl)cn1)[C@@H]1CN(C(=O)c2ccc(CN(C)C)nc2)C[C@H]1c1ccc(Cl)c(Cl)c1` (racemic) [Example 39, [(3SR,4RS)-3-[(RS)-1-(5-Chloro-pyridin-2-yloxy)-ethyl]-4-(3,4-dichloro-phenyl)-pyrrolidin-1-yl]-(6-dimethylaminomethyl-pyridin-3-yl)-methanone], 9.3 nM.
To `C[C@@H](Oc1ccc(Cl)cn1)[C@@H]1CN(C(=O)c2ccc(CN(C)C)cc2)C[C@H]1c1ccc(Cl)c(Cl)c1` (racemic) [Example 42, [(3SR,4RS)-3-[(RS)-1-(5-Chloro-pyridin-2-yloxy)-ethyl]-4-(3,4-dichloro-phenyl)-pyrrolidin-1-yl]-(4-dimethylaminomethyl-phenyl)-methanone] belongs 25.5 nM; to `C[C@H](Oc1ccc(C#N)cn1)[C@H]1CN(C(=O)c2ccc(CN(C)C)nc2)C[C@@H]1c1ccc(Cl)c(Cl)c1` (racemic) [Example 43, 6-{(SR)-1-[(3RS,4SR)-4-(3,4-Dichloro-phenyl)-1-(6-dimethylaminomethyl-pyridine-3-carbonyl)-pyrrolidin-3-yl]-ethoxy}-nicotinonitrile], 24.6 nM; to `CSc1ccc(C(=O)N2C[C@@H]([C@@H](C)Oc3ccc(Cl)cn3)[C@H](c3ccc(Cl)c(Cl)c3)C2)cn1` (racemic) [Example 45, [(3SR,4RS)-3-[(RS)-1-(5-Chloro-pyridin-2-yloxy)-ethyl]-4-(3,4-dichloro-phenyl)-pyrrolidin-1-yl]-(6-methylsulfanyl-pyridin-3-yl)-methanone], 7.3 nM.
With `C[C@@H](Oc1ccc(Cl)cn1)[C@@H]1CN(C(=O)c2ccc(CCN3CCCC3)nc2)C[C@H]1c1ccc(Cl)c(Cl)c1` (racemic) [Example 46, [(3SR,4RS)-3-[(RS)-1-(5-Chloro-pyridin-2-yloxy)-ethyl]-4-(3,4-dichloro-phenyl)-pyrrolidin-1-yl]-[6-(2-pyrrolidin-1-yl-ethyl)-pyridin-3-yl]-methanone], the Ki was 1.9 nM.
The value for `C[C@@H](Oc1ccc(Cl)cn1)[C@@H]1CN(C(=O)c2ccc(S(C)(=O)=O)nc2)C[C@H]1c1ccc(Cl)c(Cl)c1` (racemic) [Example 47, [(3SR,4RS)-3-[(RS)-1-(5-Chloro-pyridin-2-yloxy)-ethyl]-4-(3,4-dichloro-phenyl)-pyrrolidin-1-yl]-(6-methanesulfonyl-pyridin-3-yl)-methanone] was 12.5 nM.
To `CSc1ncc(C(=O)N2C[C@@H]([C@@H](C)Oc3ccc(Cl)cn3)[C@H](c3ccc(Cl)c(Cl)c3)C2)cn1` (racemic) [Example 48, [(3SR,4RS)-3-[(RS)-1-(5-Chloro-pyridin-2-yloxy)-ethyl]-4-(3,4-dichloro-phenyl)-pyrrolidin-1-yl]-(2-methylsulfanyl-pyrimidin-5-yl)-methanone] belongs 42.6 nM.
For `C[C@@H](Oc1ccc(Cl)cn1)[C@@H]1CN(C(=O)c2ccc(C#N)cc2)C[C@H]1c1ccc(Cl)c(Cl)c1` (racemic) [Example 49, 4-[(3SR,4RS)-3-[(RS)-1-(5-Chloro-pyridin-2-yloxy)-ethyl]-4-(3,4-dichloro-phenyl)-pyrrolidin-1-carbonyl]-benzonitrile], the Ki stood at 22.3 nM.
The value for `C[C@@H](Oc1ccc(Cl)cn1)[C@@H]1CN(C(=O)c2cnc(S(C)(=O)=O)nc2)C[C@H]1c1ccc(Cl)c(Cl)c1` (racemic) [Example 51, [(3SR,4RS)-3-[(RS)-1-(5-Chloro-pyridin-2-yloxy)-ethyl]-4-(3,4-dichloro-phenyl)-pyrrolidin-1-yl]-(2-methanesulfonyl-pyrimidin-5-yl)-methanone] was 78.7 nM; that for `C[C@H](Oc1ccc(C#N)cn1)[C@H]1CN(C(=O)c2ccc(C#N)nc2)C[C@@H]1c1ccc(Cl)c(Cl)c1` (racemic) [Example 52, 6-{(SR)-1-[(3RS,4SR)-4-(3,4-Dichloro-phenyl)-1-(6-cyano-pyridine-3-carbonyl)-pyrrolidin-3-yl]-ethoxy}-nicotinonitrile] was 5.4 nM.
The value for `C[C@H](Oc1ccc(C(F)(F)F)cn1)[C@H]1CN(C(=O)c2ccc(C#N)cc2)C[C@@H]1c1ccc(Cl)c(Cl)c1` (racemic) [Example 55, 4-{(3SR,4RS)-3-(3,4-Dichloro-phenyl)-4-[(SR)-1-(5-trifluoromethyl-pyridin-2-yloxy)-ethyl]-pyrrolidine-1-carbonyl}-benzonitrile] was 6.5 nM; that for `C[C@H](Oc1ccc(C(F)(F)F)cn1)[C@H]1CN(C(=O)c2ccc(C#N)nc2)C[C@@H]1c1ccc(Cl)c(Cl)c1` (racemic) [Example 56, 5-{(3SR,4RS)-3-(3,4-Dichloro-phenyl)-4-[(SR)-1-(5-trifluoromethyl-pyridin-2-yloxy)-ethyl]-pyrrolidine-1-carbonyl}-pyridine-2-carbonitrile] was 4.3 nM; that for `Cc1ncc(C(=O)N2C[C@H]([C@H](C)Oc3ccc(C#N)cn3)[C@@H](c3ccc(Cl)c(Cl)c3)C2)cn1` (racemic) [Example 57, 6-{(SR)-1-[(3RS,4SR)-4-(3,4-Dichloro-phenyl)-1-(2-methyl-pyrimidine-5-carbonyl)-pyrrolidin-3-yl]-ethoxy}-nicotinonitrile] was 23.4 nM.
The value for `C[C@H](Oc1ccc(C#N)cn1)[C@H]1CN(C(=O)c2ccc(S(=O)(=O)N(C)C)nc2)C[C@@H]1c1ccc(Cl)c(Cl)c1` (racemic) [Example 58, 5-[(3RS,4SR)-3-[(SR)-1-(5-Cyano-pyridin-2-yloxy)-ethyl]-4-(3,4-dichloro-phenyl)-pyrrolidine-1-carbonyl]-pyridine-2-sulfonic acid dimethylamide] was 0.5 nM; that for `C[C@H](Oc1ccc(C#N)cn1)[C@H]1CN(C(=O)c2ccc(-c3cnco3)cc2)C[C@@H]1c1ccc(Cl)c(Cl)c1` (racemic) [Example 59, 6-{(SR)-1-[(3RS,4SR)-4-(3,4-Dichloro-phenyl)-1-(4-oxazol-5-yl-benzoyl)-pyrrolidin-3-yl]-ethoxy}-nicotinonitrile] was 2.1 nM; that for `Cc1noc(-c2ccc(C(=O)N3C[C@H]([C@H](C)Oc4ccc(C#N)cn4)[C@@H](c4ccc(Cl)c(Cl)c4)C3)cc2)n1` (racemic) [Example 60, 6-((SR)-1-{(3RS,4SR)-4-(3,4-Dichloro-phenyl)-1-[4-(3-methyl-[1,2,4]oxadiazol-5-yl)-benzoyl]-pyrrolidin-3-yl}-ethoxy)-nicotinonitrile] was 1.1 nM.
`Cc1nc(-c2ccc(C(=O)N3C[C@H]([C@H](C)Oc4ccc(C#N)cn4)[C@@H](c4ccc(Cl)c(Cl)c4)C3)cc2)no1` (racemic) [Example 61, 6-((SR)-1-{(3RS,4SR)-4-(3,4-Dichloro-phenyl)-1-[4-(5-methyl-[1,2,4]oxadiazol-3-yl)-benzoyl]-pyrrolidin-3-yl}-ethoxy)-nicotinonitrile]: the Ki worked out at 1.4 nM.
To `CCc1noc(-c2ccc(C(=O)N3C[C@H]([C@H](C)Oc4ccc(C#N)cn4)[C@@H](c4ccc(Cl)c(Cl)c4)C3)cc2)n1` (racemic) [Example 62, 6-((SR)-1-{(3RS,4SR)-4-(3,4-Dichloro-phenyl)-1-[4-(3-ethyl-[1,2,4]oxadiazol-5-yl)-benzoyl]-pyrrolidin-3-yl}-ethoxy)-nicotinonitrile] belongs 59.4 nM.
